Results taken from publication PMC6691788, “Design and synthesis of phthalazine-based compounds as potent anticancer agents with potential antiangiogenic activity via VEGFR-2 inhibition” (Journal of Enzyme Inhibition and Medicinal Chemistry, 2019).

Key:
Assay in all cases: NCI 60 cell panel SRB screen
CCRF-CEM = format: cell-based, human; conditions: Homo sapiens
RPMI-8226 = format: cell-based; conditions: Homo sapiens
SR = format: cell-based; conditions: Homo sapiens
A549/ATCC = format: cell-based; conditions: Homo sapiens
HOP-92 = format: cell-based; conditions: Homo sapiens
NCI-H226 = format: cell-based; conditions: Homo sapiens
NCI-H23 = format: cell-based; conditions: Homo sapiens
NCI-H460 = format: cell-based; conditions: Homo sapiens
HCC-2998 = format: cell-based; conditions: Homo sapiens
HCT-116 = format: cell-based; conditions: Homo sapiens
KM12 = format: cell-based; conditions: Homo sapiens
SW-620 = format: cell-based; conditions: Homo sapiens
SNB-19 = format: cell-based; conditions: Homo sapiens
SNB-75 = format: cell-based; conditions: Homo sapiens
U251 = format: cell-based; conditions: Homo sapiens, U-251
MALME-3M = format: cell-based; conditions: Homo sapiens
M14 = format: cell-based; conditions: Homo sapiens
SK-MEL-28 = format: cell-based; conditions: Homo sapiens
SK-MEL-5 = format: cell-based; conditions: Homo sapiens
OVCAR-5 = format: cell-based; conditions: Homo sapiens
OVCAR-8 = format: cell-based; conditions: Homo sapiens
NCI/ADR-RES = format: cell-based; conditions: Homo sapiens
SK-OV-3 = format: cell-based; conditions: Homo sapiens
ACHN = format: cell-based; conditions: Homo sapiens
RXF 393 = format: cell-based; conditions: Homo sapiens
SN12C = format: cell-based; conditions: Homo sapiens
TK-10 = format: cell-based, human
[1] = 5 log dose, 48 h, read-out: LC50 (the source's name)
[2] = single dose 10 μM, read-out: percent cell growth promotion

SMILES: O=C(Nc1ccc(Cl)cc1)Nc1ccc(Oc2nncc3ccccc23)cc1 [Compound 7b, 1–(4-Chlorophenyl)-3–(4-(phthalazin-1-yloxy)phenyl)urea]
- GI50 (CCRF-CEM; 5 log dose): 0.32 µM
- CC50 (CCRF-CEM; [1]): > 100 µM
- activity at 10 µM (CCRF-CEM; [2]): 8.7%
- GI50 (RPMI-8226; RPMI-8226, 5 log dose): 0.48 µM
- IC (TGI) (RPMI-8226; RPMI-8226, 5 log dose): 4.58 µM
- CC50 (RPMI-8226; RPMI-8226, 5 log dose, 48 h, read-out: LC50 (the source's name)): > 100 µM
- activity at 10 µM (RPMI-8226; RPMI-8226, single dose 10 μM, read-out: percent cell growth promotion): -0.08%
- GI50 (SR; 5 log dose): 0.4 µM
- IC (TGI) (SR; 5 log dose): > 100 µM
- CC50 (SR; [1]): > 100 µM
- activity at 10 µM (SR; [2]): 2.64%
- GI50 (A549/ATCC; 5 log dose): 2.81 µM
- IC (TGI) (A549/ATCC; 5 log dose): 11.5 µM
- LC50 (concentration killing 50% of cells) (A549/ATCC; 5 log dose, 48 h): > 100 µM
- activity at 10 µM (A549/ATCC; [2]): 40%
- GI50 (HOP-92; HOP-92, 5 log dose): 1.64 µM
- IC (TGI) (HOP-92; HOP-92, 5 log dose): 4.37 µM
- CC50 (HOP-92; HOP-92, 5 log dose, 48 h, read-out: LC50 (the source's name)): 17.1 µM
- activity at 10 µM (HOP-92; HOP-92, single dose 10 μM, read-out: percent cell growth promotion): 12.9%
- GI50 (NCI-H226; NCI-H226, 5 log dose): 0.62 µM
- IC (TGI) (NCI-H226; NCI-H226, 5 log dose): 5.42 µM
- CC50 (NCI-H226; NCI-H226, 5 log dose, 48 h, read-out: LC50 (the source's name)): > 100 µM
- activity at 10 µM (NCI-H226; NCI-H226, single dose 10 μM, read-out: percent cell growth promotion): -54.5%
- GI50 (NCI-H23; NCI-H23, 5 log dose): 0.75 µM
- IC (TGI) (NCI-H23; NCI-H23, 5 log dose): 2.87 µM
- CC50 (NCI-H23; NCI-H23, 5 log dose, 48 h, read-out: LC50 (the source's name)): 9.61 µM
- activity at 10 µM (NCI-H23; NCI-H23, single dose 10 μM, read-out: percent cell growth promotion): 0.5%
- GI50 (NCI-H460; NCI-H460, 5 log dose): 2.79 µM
- IC (TGI) (NCI-H460; NCI-H460, 5 log dose): 8.32 µM
- LC50 (concentration causing 50% cell kill) (NCI-H460; NCI-H460, 5 log dose, 48 h): 45.5 µM
- activity at 10 µM (NCI-H460; NCI-H460, single dose 10 μM, read-out: percent cell growth promotion): 21.5%
- GI50 (HCC-2998; HCC-2998, 5 log dose): 1.84 µM
- IC (TGI) (HCC-2998; HCC-2998, 5 log dose): 3.48 µM
- LC50 (50% lethal concentration) (HCC-2998; HCC-2998, 5 log dose, 48 h): 6.57 µM
- activity at 10 µM (HCC-2998; HCC-2998, single dose 10 μM, read-out: percent cell growth promotion): -42.2%
- GI50 (HCT-116; HCT-116, 5 log dose): 0.32 µM
- IC (TGI) (HCT-116; HCT-116, 5 log dose): 1.2 µM
- LC50 (lethal concentration 50%) (HCT-116; HCT-116, 5 log dose, 48 h): 4.65 µM
- activity at 10 µM (HCT-116; HCT-116, single dose 10 μM, read-out: percent cell growth promotion): -56.9%
- GI50 (KM12; KM12, 5 log dose): 0.88 µM
- IC (TGI) (KM12; KM12, 5 log dose): 2.65 µM
- CC50 (KM12; KM12, 5 log dose, 48 h, read-out: LC50 (the source's name)): 7.38 µM
- activity at 10 µM (KM12; KM12, single dose 10 μM, read-out: percent cell growth promotion): -32.3%
- GI50 (SW-620; SW-620, 5 log dose): 0.34 µM
- IC (TGI) (SW-620; SW-620, 5 log dose): 1.06 µM
- CC50 (SW-620; SW-620, 5 log dose, 48 h, read-out: LC50 (the source's name)): 30.3 µM
- activity at 10 µM (SW-620; SW-620, single dose 10 μM, read-out: percent cell growth promotion): -30.1%
- GI50 (SNB-19; SNB-19, 5 log dose): 1.74 µM
- IC (TGI) (SNB-19; SNB-19, 5 log dose): 4.79 µM
- CC50 (SNB-19; SNB-19, 5 log dose, 48 h, read-out: LC50 (the source's name)): 58.3 µM
- activity at 10 µM (SNB-19; SNB-19, single dose 10 μM, read-out: percent cell growth promotion): -76.5%
- GI50 (SNB-75; SNB-75, 5 log dose): 0.45 µM
- IC (TGI) (SNB-75; SNB-75, 5 log dose): 1.95 µM
- LC50 (concentration killing 50% of cells) (SNB-75; SNB-75, 5 log dose, 48 h): 5.2 µM
- activity at 10 µM (SNB-75; SNB-75, single dose 10 μM, read-out: percent cell growth promotion): -3.13%
- GI50 (U251; U251, 5 log dose): 1.01 µM
- IC (TGI) (U251; U251, 5 log dose): 2.38 µM
- CC50 (U251; U251, 5 log dose, 48 h, read-out: LC50 (the source's name)): 5.61 µM
- activity at 10 µM (U251; U251, single dose 10 μM, read-out: percent cell growth promotion): -31.1%
- GI50 (MALME-3M; Malme-3M): 0.44 µM
- IC (TGI) (MALME-3M; Malme-3M, read-out: TGI): 2.31 µM
- activity at 10 µM (MALME-3M; Malme-3M, read-out: percent cell growth promotion): 0.78%
- CC50 (MALME-3M; MALME-3M, 5 log dose, 48 h, read-out: LC50 (the source's name)): 9.69 µM
- GI50 (M14; M14): 1.12 µM
- IC (TGI) (M14; M14, read-out: TGI): 3.16 µM
- activity at 10 µM (M14; M14, read-out: percent cell growth promotion): 7.3%
- CC50 (M14; M14, 5 log dose, 48 h, read-out: LC50 (the source's name)): 8.93 µM
- GI50 (SK-MEL-28; SK-MEL-28): 0.42 µM
- IC (TGI) (SK-MEL-28; SK-MEL-28, read-out: TGI): 1.65 µM
- activity at 10 µM (SK-MEL-28; SK-MEL-28, read-out: percent cell growth promotion): -31.6%
- CC50 (SK-MEL-28; SK-MEL-28, 5 log dose, 48 h, read-out: LC50 (the source's name)): 5.33 µM
- GI50 (SK-MEL-5; SK-MEL-5): 1.02 µM
- IC (TGI) (SK-MEL-5; SK-MEL-5, read-out: TGI): 2.81 µM
- activity at 10 µM (SK-MEL-5; SK-MEL-5, read-out: percent cell growth promotion): -43.3%
- CC50 (SK-MEL-5; SK-MEL-5, 5 log dose, 48 h, read-out: LC50 (the source's name)): 6.56 µM
- GI50 (OVCAR-5; OVCAR-5, 5 log dose): 1.89 µM
- IC (TGI) (OVCAR-5; OVCAR-5, 5 log dose): 4.47 µM
- CC50 (OVCAR-5; OVCAR-5, 5 log dose, 48 h, read-out: LC50 (the source's name)): 12.6 µM
- activity at 10 µM (OVCAR-5; OVCAR-5, single dose 10 μM, read-out: percent cell growth promotion): -16%
- GI50 (OVCAR-8; OVCAR-8, 5 log dose): 1.1 µM
- IC (TGI) (OVCAR-8; OVCAR-8, 5 log dose): 13.6 µM
- CC50 (OVCAR-8; OVCAR-8, 5 log dose, 48 h, read-out: LC50 (the source's name)): > 100 µM
- activity at 10 µM (OVCAR-8; OVCAR-8, single dose 10 μM, read-out: percent cell growth promotion): 19.4%
- GI50 (NCI/ADR-RES; 5 log dose): 2.63 µM
- IC (TGI) (NCI/ADR-RES; 5 log dose): > 100 µM
- CC50 (NCI/ADR-RES; [1]): > 100 µM
- activity at 10 µM (NCI/ADR-RES; [2]): 37.6%
- GI50 (SK-OV-3; SK-OV-3, 5 log dose): 1.74 µM
- IC (TGI) (SK-OV-3; SK-OV-3, 5 log dose): 5.48 µM
- CC50 (SK-OV-3; SK-OV-3, 5 log dose, 48 h, read-out: LC50 (the source's name)): 27.2 µM
- activity at 10 µM (SK-OV-3; SK-OV-3, single dose 10 μM, read-out: percent cell growth promotion): 56.7%
- GI50 (ACHN; 5 log dose): 1.05 µM
- IC (TGI) (ACHN; 5 log dose): 2.33 µM
- CC50 (ACHN; [1]): 5.18 µM
- activity at 10 µM (ACHN; [2]): -15.1%
- GI50 (RXF 393; RXF 393, 5 log dose): 0.31 µM
- IC (TGI) (RXF 393; RXF 393, 5 log dose): 1.05 µM
- CC50 (RXF 393; RXF 393, 5 log dose, 48 h, read-out: LC50 (the source's name)): 3.74 µM
- activity at 10 µM (RXF 393; RXF 393, single dose 10 μM, read-out: percent cell growth promotion): -91.2%
- GI50 (SN12C; 5 log dose): 1.03 µM
- IC (TGI) (SN12C; 5 log dose): 3.58 µM
- CC50 (SN12C; [1]): > 100 µM
- activity at 10 µM (SN12C; [2]): -3.83%
- GI50 (TK-10; Homo sapiens, TK-10, 5 log dose): 2.12 µM
- CC50 (TK-10; Homo sapiens, TK-10, 5 log dose, 48 h, read-out: LC50 (the source's name)): 8.64 µM
- activity at 10 µM (TK-10; Homo sapiens, TK-10, single dose 10 μM, read-out: percent cell growth promotion): 27.5%
- TGI (TK-10; TK-10, 5 log dose): 4.28 µM
